Data from US8653087B2, “Pyrido [5, 4-D] pyrimidines as cell proliferation inhibitors” (Boehringer Ingelheim International GmbH, priority 2008, dated 2014).

Target: B-Raf (V600E)-kinase (Homo sapiens (Human), UniProt P15056, V600E)
Assay: Kinase test B-RAF (V600E)
Format: biochemical
Settings: B-RAF (V600E) kinase test, 250 μM ATP
Outline: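 Read-out is DELFIA europium TRF of phospho-MEK (Ser217/221) on biotinylated MEK1 bound to streptavidin plates, IC50 from dose-response. Reaction ran 60 min at RT with 250 μM ATP, after a 24 h RT preincubation of compound with B-Raf (V600E) kinase, 5% DMSO final.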

Sequence of B-Raf (V600E)-kinase (P15056 whole entry V600E): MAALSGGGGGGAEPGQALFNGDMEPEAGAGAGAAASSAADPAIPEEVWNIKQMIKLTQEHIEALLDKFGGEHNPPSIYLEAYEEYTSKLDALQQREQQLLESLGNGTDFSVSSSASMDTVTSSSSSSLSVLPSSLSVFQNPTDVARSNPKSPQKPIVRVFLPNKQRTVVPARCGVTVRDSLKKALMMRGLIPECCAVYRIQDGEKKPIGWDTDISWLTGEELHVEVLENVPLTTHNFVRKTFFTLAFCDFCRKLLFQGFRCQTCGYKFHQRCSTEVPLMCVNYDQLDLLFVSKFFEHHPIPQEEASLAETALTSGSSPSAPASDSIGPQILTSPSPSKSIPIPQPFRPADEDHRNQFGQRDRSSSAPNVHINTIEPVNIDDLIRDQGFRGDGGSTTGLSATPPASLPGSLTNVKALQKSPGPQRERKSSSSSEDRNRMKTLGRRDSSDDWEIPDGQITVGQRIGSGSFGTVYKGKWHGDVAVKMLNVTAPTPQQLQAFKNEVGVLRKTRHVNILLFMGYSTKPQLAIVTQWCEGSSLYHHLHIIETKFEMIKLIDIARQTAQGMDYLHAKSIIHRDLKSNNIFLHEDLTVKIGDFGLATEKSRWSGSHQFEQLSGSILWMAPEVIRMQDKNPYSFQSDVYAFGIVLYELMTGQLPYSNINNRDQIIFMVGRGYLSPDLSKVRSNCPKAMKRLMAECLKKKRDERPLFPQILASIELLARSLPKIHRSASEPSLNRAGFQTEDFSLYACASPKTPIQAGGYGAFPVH

Row | Compound | IC50 [nM]
1 | CN(C)CCNc1ncc2ncnc(Nc3cc(C(=O)Nc4cc(C(C)(C)C)on4)ccc3Cl)c2n1 [III-77] | 2
2 | CC(C)(C)c1cc(NC(=O)c2ccc(Cl)c(Nc3ncnc4cnc(NCCN5CCOCC5)nc34)c2)no1 [III-78] | 2
3 | CN(C)CCN(C)c1ncc2ncnc(Nc3cc(C(=O)Nc4cc(C(C)(C)C)on4)ccc3Cl)c2n1 [III-79] | 1
4 | COc1ccc(C(=O)Nc2cc(C(C)(C)C)on2)cc1Nc1ncnc2cnc(N3CCCC3)nc12 [III-82] | 20
5 | COc1ccc(C(=O)Nc2cc(C(C)(C)C)on2)cc1Nc1ncnc2cnc(N3CCCCCC3)nc12 [III-87] | 3
6 | CC(C)(C)c1cc(NC(=O)c2ccc(F)c(Nc3ncnc4cnc(N5CCOCC5)nc34)c2)no1 [III-89] | 4
7 | CN(C)CCNc1ncc2ncnc(Nc3cc(C(=O)Nc4cc(C(C)(C)C)on4)ccc3F)c2n1 [III-91] | 1
8 | CC(C)(C)c1cc(NC(=O)c2ccc(F)c(Nc3ncnc4cnc(NCCN5CCOCC5)nc34)c2)no1 [III-92] | 1
9 | COc1ccc(C(=O)Nc2cc(C(C)(C)C)on2)cc1Nc1ncnc2cnc(N3CCCN(C)CC3)nc12 [III-96] | 2
10 | COCCN(C)c1ncc2ncnc(Nc3cc(C(=O)Nc4cc(CN5CCCC5)cc(C(F)(F)F)c4)ccc3C)c2n1 [III-98] | 2
11 | Cc1ccc(C(=O)Nc2cc(CN3CCCC3)cc(C(F)(F)F)c2)cc1Nc1ncnc2cnc(N3CCC3)nc12 [III-100] | 4
12 | Cc1ccc(C(=O)Nc2cc(CN3CCCC3)cc(C(F)(F)F)c2)cc1Nc1ncnc2cnc(NCCF)nc12 [III-101] | 1
13 | Cc1ccc(C(=O)Nc2cc(CN3CCCC3)cc(C(F)(F)F)c2)cc1Nc1ncnc2cnc(N3CCC(F)(F)CC3)nc12 [III-102] | 4
14 | Cc1ccc(C(=O)Nc2cc(CN3CCCC3)cc(C(F)(F)F)c2)cc1Nc1ncnc2cnc(N3CCC(F)CC3)nc12 [III-103] | 2
15 | Cc1ccc(C(=O)Nc2cc(CN3CCCC3)cc(C(F)(F)F)c2)cc1Nc1ncnc2cnc(NCC3CCOC3)nc12 (stereo not drawn) [III-104] | 1
16 | Cc1ccc(C(=O)Nc2cc(CN3CCCC3)cc(C(F)(F)F)c2)cc1Nc1ncnc2cnc(NC3CC3)nc12 [III-111] | < 1
17 | Cc1ccc(C(=O)Nc2cc(CN3CCCC3)cc(C(F)(F)F)c2)cc1Nc1ncnc2cnc(NCc3ccncc3)nc12 [III-114] | 2
18 | Cc1ccc(C(=O)Nc2cc(CN3CCCC3)cc(C(F)(F)F)c2)cc1Nc1ncnc2cnc(N(C)C)nc12 [III-115] | 2

Row | Compound | IC50 [nM]
19 | CNc1ncc2ncnc(Nc3cc(C(=O)Nc4cc(CN5CCCC5)cc(C(F)(F)F)c4)ccc3C)c2n1 [III-116] | < 1
20 | Cc1ccc(C(=O)Nc2cc(CN3CCCC3)cc(C(F)(F)F)c2)cc1Nc1ncnc2cnc(NCCc3ccccc3)nc12 [III-118] | 2
21 | Cc1ccc(C(=O)Nc2ccc(N(C)CCN(C)C)c(C(F)(F)F)c2)cc1Nc1ncnc2cnc(NCc3ccncc3)nc12 [III-136] | 3
22 | COCCN(C)c1ncc2ncnc(Nc3cc(C(=O)Nc4cc(OCCN(C)C)cc(C(F)(F)F)c4)ccc3C)c2n1 [III-141] | 2
23 | Cc1ccc(C(=O)Nc2cc(OCCN(C)C)cc(C(F)(F)F)c2)cc1Nc1ncnc2cnc(N3CCSCC3)nc12 [III-142] | 3
24 | Cc1ccc(C(=O)Nc2cc(OCCN(C)C)cc(C(F)(F)F)c2)cc1Nc1ncnc2cnc(N3CCC3)nc12 [III-143] | 2
25 | Cc1ccc(C(=O)Nc2cc(OCCN(C)C)cc(C(F)(F)F)c2)cc1Nc1ncnc2cnc(NCCF)nc12 [III-144] | < 1
26 | Cc1ccc(C(=O)Nc2cc(OCCN(C)C)cc(C(F)(F)F)c2)cc1Nc1ncnc2cnc(N3CCC(F)CC3)nc12 [III-145] | 2
27 | Cc1ccc(C(=O)Nc2cc(OCCN(C)C)cc(C(F)(F)F)c2)cc1Nc1ncnc2cnc(NCC3CCOC3)nc12 (stereo not drawn) [III-146] | < 1
28 | Cc1ccc(C(=O)Nc2cc(OCCN(C)C)cc(C(F)(F)F)c2)cc1Nc1ncnc2cnc(N3CCOCC3)nc12 [III-149] | < 1
29 | Cc1ccc(C(=O)Nc2cc(OCCN(C)C)cc(C(F)(F)F)c2)cc1Nc1ncnc2cnc(NCC(C)C)nc12 [III-153] | < 1
30 | CCN(CC)c1ncc2ncnc(Nc3cc(C(=O)Nc4cc(OCCN(C)C)cc(C(F)(F)F)c4)ccc3C)c2n1 [III-157] | 3
31 | Cc1ccc(C(=O)Nc2cc(N(C)CCN(C)C)cc(C(F)(F)F)c2)cc1Nc1ncnc2cnc(NCc3cccnc3)nc12 [III-168] | < 1
32 | Cc1ccc(C(=O)Nc2cc(N(C)CCN(C)C)cc(C(F)(F)F)c2)cc1Nc1ncnc2cnc(NCc3ccccn3)nc12 [III-172] | 2
33 | Cc1ccc(C(=O)Nc2cccc(C(C)(C)C#N)c2)cc1Nc1ncnc2cnc(N3CCCN(C)CC3)nc12 [III-180] | 3
34 | Cc1ccc(C(=O)NCc2cccc(C(F)(F)F)c2)cc1Nc1ncnc2cnc(N3CCCN(C)CC3)nc12 [III-182] | 245
35 | Cc1ccc(C(=O)NCC2CCOC2)cc1Nc1ncnc2cnc(N3CCN(C)CC3)nc12 (stereo not drawn) [III-187] | > 2000
36 | Cc1ccc(C(=O)NCc2cccc(C(F)(F)F)c2)cc1Nc1ncnc2cnc(N3CCN(C)CC3)nc12 [III-188] | 104

Now from value to compound:

Row | IC50 [nM] | Compound
37 | 6 | COCCN(C)c1ncc2ncnc(Nc3cc(C(=O)Nc4cc(C(C)(C)C)on4)ccc3OC)c2n1 [III-80]
38 | 2 | COc1ccc(C(=O)Nc2cc(C(C)(C)C)on2)cc1Nc1ncnc2cnc(N3CCOCC3)nc12 [III-81]
39 | 8 | COc1ccc(C(=O)Nc2cc(C(C)(C)C)on2)cc1Nc1ncnc2cnc(N(C)C)nc12 [III-83]
40 | 2 | COCCN(C)c1ncc2ncnc(Nc3cc(C(=O)Nc4cc(C(C)(C)C)on4)ccc3F)c2n1 [III-84]
41 | 7 | CC(C)(C)c1cc(NC(=O)c2ccc(F)c(Nc3ncnc4cnc(N5CCCCCC5)nc34)c2)no1 [III-85]
42 | < 1 | CN1CCCN(c2ncc3ncnc(Nc4cc(C(=O)Nc5cc(C(C)(C)C)on5)ccc4F)c3n2)CC1 [III-86]
43 | 5 | CC(C)(C)c1cc(NC(=O)c2ccc(F)c(Nc3ncnc4cnc(N5CCCCC5)nc34)c2)no1 [III-88]
44 | 5 | CC(C)(C)c1cc(NC(=O)c2ccc(F)c(Nc3ncnc4cnc(N5CCCC5)nc34)c2)no1 [III-90]
45 | 1 | CN(C)c1ncc2ncnc(Nc3cc(C(=O)Nc4cc(C(C)(C)C)on4)ccc3F)c2n1 [III-93]
46 | 6 | CNc1ncc2ncnc(Nc3cc(C(=O)Nc4cc(C(C)(C)C)on4)ccc3F)c2n1 [III-94]
47 | 2 | COc1ccc(C(=O)Nc2cc(C(C)(C)C)on2)cc1Nc1ncnc2cnc(N3CCN(C)CC3)nc12 [III-95]
48 | 4 | COc1ccc(C(=O)Nc2cc(C(C)(C)C)on2)cc1Nc1ncnc2cnc(N(C)CCN3CCCC3)nc12 [III-97]
49 | 5 | Cc1ccc(C(=O)Nc2cc(CN3CCCC3)cc(C(F)(F)F)c2)cc1Nc1ncnc2cnc(N3CCSCC3)nc12 [III-99]
50 | 3 | Cc1ccc(C(=O)Nc2cc(CN3CCCC3)cc(C(F)(F)F)c2)cc1Nc1ncnc2cnc(NCc3ccccc3)nc12 [III-105]
51 | 2 | Cc1ccc(C(=O)Nc2cc(CN3CCCC3)cc(C(F)(F)F)c2)cc1Nc1ncnc2cnc(N3CCCCC3)nc12 [III-106]
52 | < 1 | Cc1ccc(C(=O)Nc2cc(CN3CCCC3)cc(C(F)(F)F)c2)cc1Nc1ncnc2cnc(N3CCOCC3)nc12 [III-108]
53 | 2 | Cc1ccc(C(=O)Nc2cc(CN3CCCC3)cc(C(F)(F)F)c2)cc1Nc1ncnc2cnc(N3CCCC3)nc12 [III-109]
54 | 1 | COCCNc1ncc2ncnc(Nc3cc(C(=O)Nc4cc(CN5CCCC5)cc(C(F)(F)F)c4)ccc3C)c2n1 [III-110]

Row | IC50 [nM] | Compound
55 | 2 | Cc1ccc(C(=O)Nc2cc(CN3CCCC3)cc(C(F)(F)F)c2)cc1Nc1ncnc2cnc(NCC(C)C)nc12 [III-112]
56 | 2 | CCN(CC)c1ncc2ncnc(Nc3cc(C(=O)Nc4cc(CN5CCCC5)cc(C(F)(F)F)c4)ccc3C)c2n1 [III-117]
57 | 2 | Cc1ccc(C(=O)Nc2ccc(N(C)CCN(C)C)c(C(F)(F)F)c2)cc1Nc1ncnc2cnc(NCc3cccnc3)nc12 [III-129]
58 | 3 | Cc1ccc(C(=O)Nc2ccc(N(C)CCN(C)C)c(C(F)(F)F)c2)cc1Nc1ncnc2cnc(N3CCOCC3)nc12 [III-130]
59 | 4 | Cc1ccc(C(=O)Nc2ccc(N(C)CCN(C)C)c(C(F)(F)F)c2)cc1Nc1ncnc2cnc(NCc3ccccn3)nc12 [III-135]
60 | 1 | Cc1ccc(C(=O)Nc2cc(OCCN(C)C)cc(C(F)(F)F)c2)cc1Nc1ncnc2cnc(NCc3ccccc3)nc12 [III-147]
61 | 2 | Cc1ccc(C(=O)Nc2cc(OCCN(C)C)cc(C(F)(F)F)c2)cc1Nc1ncnc2cnc(N3CCCC3)nc12 [III-150]
62 | 1 | COCCNc1ncc2ncnc(Nc3cc(C(=O)Nc4cc(OCCN(C)C)cc(C(F)(F)F)c4)ccc3C)c2n1 [III-151]
63 | < 1 | Cc1ccc(C(=O)Nc2cc(OCCN(C)C)cc(C(F)(F)F)c2)cc1Nc1ncnc2cnc(NC3CC3)nc12 [III-152]
64 | 2 | Cc1ccc(C(=O)Nc2cc(OCCN(C)C)cc(C(F)(F)F)c2)cc1Nc1ncnc2cnc(N(C)C)nc12 [III-155]
65 | < 1 | CNc1ncc2ncnc(Nc3cc(C(=O)Nc4cc(OCCN(C)C)cc(C(F)(F)F)c4)ccc3C)c2n1 [III-156]
66 | 1 | Cc1ccc(C(=O)Nc2cc(N(C)CCN(C)C)cc(C(F)(F)F)c2)cc1Nc1ncnc2cnc(NCc3ccncc3)nc12 [III-173]
67 | > 7000 | Cc1ccc(C(=O)NCC2CCOC2)cc1Nc1ncnc2cnc(N3CCCN(C)CC3)nc12 (stereo not drawn) [III-179]
68 | 17 | COc1c(NC(=O)c2ccc(C)c(Nc3ncnc4cnc(N5CCCN(C)CC5)nc34)c2)cc(C(C)(C)C)cc1NS(C)(=O)=O [III-181]
69 | > 15000 | Cc1ccc(C(=O)NC2CCCCC2)cc1Nc1ncnc2cnc(N3CCCN(C)CC3)nc12 [III-183]
70 | 2880 | Cc1ccc(C(=O)Nc2ccccc2)cc1Nc1ncnc2cnc(N3CCCN(C)CC3)nc12 [III-184]
71 | > 15000 | Cc1ccc(C(=O)NC2CC2)cc1Nc1ncnc2cnc(N3CCCN(C)CC3)nc12 [III-185]
72 | 26 | Cc1ccc(C(=O)Nc2ccc3c(c2)C(C)(C)C(=O)N3CCN2CCCC2)cc1Nc1ncnc2cnc(N3CCN(C)CC3)nc12 [III-186]
